Structures can show the parent of a compound that is named as a salt.
Target: T1, telomerase (catalytic subunit TERT) (Homo sapiens, UniProt O14746)
T1 construct: with telomerase RNA component TER (endogenous telomerase ribonucleoprotein in MCF7 lysate)
Experiment: q-TRAP-ligand assay in MCF7 cell lysate, compound added before telomere elongation
Format: biochemical

T1 sequence (O14746 whole entry): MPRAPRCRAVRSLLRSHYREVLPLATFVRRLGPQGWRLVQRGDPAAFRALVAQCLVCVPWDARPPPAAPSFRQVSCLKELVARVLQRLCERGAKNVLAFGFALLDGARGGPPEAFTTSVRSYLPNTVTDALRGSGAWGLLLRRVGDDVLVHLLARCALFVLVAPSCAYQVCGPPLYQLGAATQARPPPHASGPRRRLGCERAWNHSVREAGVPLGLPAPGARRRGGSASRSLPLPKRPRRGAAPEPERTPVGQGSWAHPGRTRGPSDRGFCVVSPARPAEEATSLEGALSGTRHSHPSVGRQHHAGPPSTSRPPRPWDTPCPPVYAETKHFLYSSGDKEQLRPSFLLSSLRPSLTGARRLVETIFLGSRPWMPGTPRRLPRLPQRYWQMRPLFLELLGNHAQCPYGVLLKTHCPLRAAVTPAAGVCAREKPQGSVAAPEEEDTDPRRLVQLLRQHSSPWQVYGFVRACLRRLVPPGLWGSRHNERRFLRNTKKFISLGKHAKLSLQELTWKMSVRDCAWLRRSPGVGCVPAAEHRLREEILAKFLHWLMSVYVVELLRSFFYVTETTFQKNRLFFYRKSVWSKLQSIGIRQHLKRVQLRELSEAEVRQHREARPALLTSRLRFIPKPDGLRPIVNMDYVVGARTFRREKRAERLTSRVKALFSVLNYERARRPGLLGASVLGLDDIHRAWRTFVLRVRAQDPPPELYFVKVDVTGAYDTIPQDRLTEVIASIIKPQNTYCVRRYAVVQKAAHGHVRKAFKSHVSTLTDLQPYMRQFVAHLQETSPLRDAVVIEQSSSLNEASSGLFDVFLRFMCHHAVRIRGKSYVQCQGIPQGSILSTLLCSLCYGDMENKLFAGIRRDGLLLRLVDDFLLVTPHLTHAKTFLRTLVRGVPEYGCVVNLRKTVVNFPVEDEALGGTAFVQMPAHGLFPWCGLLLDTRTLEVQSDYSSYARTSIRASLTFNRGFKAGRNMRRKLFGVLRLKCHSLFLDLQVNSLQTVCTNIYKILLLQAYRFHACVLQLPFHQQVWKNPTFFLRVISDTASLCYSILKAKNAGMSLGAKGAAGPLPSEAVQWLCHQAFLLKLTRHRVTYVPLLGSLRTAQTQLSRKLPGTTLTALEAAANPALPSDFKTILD

Row | Compound | IC50 [µM]
1 | COc1cc2c(cc1O)C[C@H]1c3c(cc(O)c(OC)c3-2)CCN1C [Boldine, 1,10-dimethoxy-2,9-dihydroxyaporphine] | 68 ± 2.5
2 | COc1cc2c(ccc3c(CCN(C)Cc4ccccc4)cc(O)c(OC)c32)cc1O [BSB, N-benzylsecoboldine hydrochloride] | 0.17 ± 0.1

Source: publication PMC5979471, “Telomerase Inhibition by a New Synthetic Derivative of the Aporphine Alkaloid Boldine” (International Journal of Molecular Sciences, 2018)
